The source of these data is patent publication US20060142379A1, “Use of AP-1 activators to treat glaucoma and ocular hypertension” (priority 1999, published 2006).

For experiment [1], the system named is perfused human ocular anterior segment. The experiment is described as follows: human ocular perfusion organ culture model, aqueous outflow rate. Particulars: for Flow Rate (% of Time 0) (Mean ± SEM, n = 6): t-BHQ 10 μM. As to the method: The study was performed as follows: Human donor eyes less than 24 hours post mortem were used. The globe was sectioned equatorially followed by the removal of vitreous, lens, zonules, iris, and most of the ciliary body. The anterior segment was then mounted on a perfusion dish, perfused with cell culture medium at a constant hydrostatic pressure of 10 mm Hg (Johnson et al., Human trabecular meshwork organ culture: A new method, Invest Ophthalmol Vis Sci., volume 28, pages 945-953 (1987); Erickson-Lamy et al., Outflow facility studies in the perfused human ocular anterior segment, Exp. Eye Res., volume 52, pages 723-731 (1991); and Clark et al., Dexamethasone-induced ocular hypertension in perfusion cultured human eyes, Invest. Ophthalmol. Vis. Sci., volume 36, pages 478-489 (1995)). The flow rate of the perfusate was measured by weighing the reservoir at predetermined periods. After 2 to 4 days of equilibrium period, one eye of each of the donor pair was perfused with the test compound, t-BHQ (10 μM), while the other was perfused with vehicle (control).

Another experiment relates to AP-1. Particulars: nuclear extracts, 32P-labelled AP-1 oligonucleotide probe; cited from earlier work.

Turning to `CC(C)(C)c1cc(O)ccc1O` [t-BHQ, tert-butylhydroquinone], the “basal flow rate at time 0” value in experiment [1] (drug-treated eyes, time 0 (basal)) is “(1) The basal flow rate at time 0 for vehicle-treated eyes was 3.55 ± 1.00 μL/min, and that for drug-treated eyes was 4.09 ± 0.63 μL/min”. Also, the “Flow Rate (% of Time 0) (Mean ± SEM, n = 6)” value in experiment [1] (0 hours (baseline)) was 100.0 % of Time 0; in experiment [1] (4 hours after treatment), 105.8 ± 5.4 % of Time 0; in experiment [1] (24 hours after treatment) it was 102.9 ± 3.9 % of Time 0; in experiment [1] (48 hours after treatment), 105.2 ± 10.1 % of Time 0; in experiment [1] (72 hours after treatment), 111.8 ± 11.8 % of Time 0; in experiment [1] (96 hours after treatment), 120.9 ± 16.4 % of Time 0. For the same compound, the “Flow Rate (% of Time 0) (Mean ± SEM, n = 6)” value in experiment [1] (−4 hours (before treatment)) is recorded as 97.0 ± 4.0 % of Time 0. In addition, the “AP-1 DNA binding activity (AP-1 Activator)” value with AP-1 is “demonstrated to be AP-1 Activators”.
